Numbers after ± are expanded uncertainties.
Conditions: Liquid

## FC(F)C(F)(F)F [pentafluoroethane]
313.15 K
  vapor or sublimation pressure: 2008 ± 38 kPa
323.15 K
  vapor or sublimation pressure: 2535 ± 48 kPa
333.15 K
  vapor or sublimation pressure: 3171 ± 59 kPa

From the NIST ThermoML archive (doi:10.1016/j.jct.2006.09.010)
